Test results taken from patent publication US20190359609A1, “BICYCLIC OGA INHIBITOR COMPOUNDS” (Janssen Pharmaceutica NV, priority 2016, published 2019).

biological target: T1, recombinant human Meningioma Expressed Antigen 5 (MGEA5), also referred to as O-GlcNAcase (OGA) (Homo sapiens, UniProt O60502); experiment: OGA biochemical assay: inhibition of FM-GlcNAc hydrolysis, fluorescence (protocol A 10 nM OGA, 1 h; protocol B 2 nM OGA, 6 h); details: Enzymatic protocol B (2 nM OGA, 6 h); read-out: Enzymatic Emax (%)
T1 construct: Full length OGA enzyme was purchased at OriGene (cat # TP322411); purchased OriGene TP322411
T1 sequence (O60502 1-916): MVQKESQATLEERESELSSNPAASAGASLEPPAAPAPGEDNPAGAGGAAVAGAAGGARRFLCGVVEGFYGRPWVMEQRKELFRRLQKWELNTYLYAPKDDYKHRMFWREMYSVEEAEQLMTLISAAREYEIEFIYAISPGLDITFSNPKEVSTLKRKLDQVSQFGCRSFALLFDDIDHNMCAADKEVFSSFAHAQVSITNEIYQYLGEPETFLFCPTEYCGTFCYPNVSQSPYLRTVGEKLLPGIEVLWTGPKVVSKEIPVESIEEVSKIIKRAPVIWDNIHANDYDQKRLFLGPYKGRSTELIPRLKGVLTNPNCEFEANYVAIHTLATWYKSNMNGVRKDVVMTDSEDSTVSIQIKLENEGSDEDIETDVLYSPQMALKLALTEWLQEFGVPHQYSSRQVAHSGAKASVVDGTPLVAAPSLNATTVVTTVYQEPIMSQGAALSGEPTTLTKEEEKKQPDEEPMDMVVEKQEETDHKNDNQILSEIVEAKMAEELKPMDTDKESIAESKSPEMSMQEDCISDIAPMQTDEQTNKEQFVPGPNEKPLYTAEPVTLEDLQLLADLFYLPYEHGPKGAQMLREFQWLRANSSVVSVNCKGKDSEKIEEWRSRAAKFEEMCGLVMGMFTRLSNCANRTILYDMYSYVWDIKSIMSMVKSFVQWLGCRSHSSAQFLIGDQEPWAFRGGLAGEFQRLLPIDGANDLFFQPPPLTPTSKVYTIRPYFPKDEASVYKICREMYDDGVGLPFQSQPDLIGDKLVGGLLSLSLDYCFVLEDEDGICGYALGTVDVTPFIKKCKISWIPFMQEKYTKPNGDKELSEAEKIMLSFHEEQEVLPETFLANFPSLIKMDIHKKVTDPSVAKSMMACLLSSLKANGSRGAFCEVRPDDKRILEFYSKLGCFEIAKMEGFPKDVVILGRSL
Text: The assay is based on the inhibition of the hydrolysis of fluorescein mono-B-D-N-Acetyl-Glucosamine (FM-GlcNAc) (Mariappa et al. 2015, Biochem J 470:255) by the recombinant human Meningioma Expressed Antigen 5 (MGEA5), also referred to as 0-GlcNAcase (OGA). The hydrolysis FM-GlcNAc (Marker Gene technologies, cat # M1485) results in the formation of β-D-N-glucosamineacetate and fluorescein. The fluorescence of the latter can be measured at excitation wavelength 485 nm and emission wavelength 538 nm. An increase in enzyme activity results in an increase in fluorescence signal. Full length OGA enzyme was purchased at OriGene (cat # TP322411). The enzyme was stored in 25 mM Tris.HCl, pH 7.3, 100 mM glycine, 10% glycerol at −20° C. Thiamet G and GlcNAcStatin were tested as reference compounds (Yuzwa et al. 2008 Nature Chemical Biology 4:483; Yuzwa et al. 2012 Nature Chemical Biology 8:393). The assay was performed in 200 mM Citrate/phosphate buffer supplemented with 0.005% Tween-20. 35.6 g Na2HPO4 2 H2O (Sigma, # C0759) were dissolved in 1 L water to obtain a 200 mM solution. 19.2 g citric acid (Merck, #1.06580) was dissolved in 1 L water to obtain a 100 mM solution. pH of the sodiumphosphate solution was adjusted with the citric acid solution to 7.2. The buffer to stop the reaction consists of a 500 mM Carbonate buffer, pH 11.0. 734 mg FM-GlcNAc were dissolved in 5.48 mL DMSO to obtain a 250 mM solution and was stored at −20° C. OGA was used at a 10 nM (protocol A) or 2 nM (protocol B) concentration and FM-GlcNAc at a 100 uM final concentration. Dilutions were prepared in assay buffer.
50 nl of a compound dissolved in DMSO was dispensed on Black Proxiplate™ 384 Plus Assay plates (Perkin Elmer, #6008269) and 3 μl fl-OGA enzyme mix added subsequently. Plates were pre-incubated for 60 min at room temperature and then 2 μl FM-GlcNAc substrate mix added. […] Plates were briefly centrifuged for 1 min at 1000 rpm and incubate at room temperature for 1 h (10 nM OGA, protocol A) or 6 h (2 nM OGA, protocol B). To stop the reaction 5 μl STOP buffer were added and plates centrifuge again 1 min at 1000 rpm. Fluorescence was quantified in the Thermo Scientific Fluoroskan Ascent or the PerkinElmer EnVision with excitation wavelength 485 nm and emission wavelength 538 nm.
For analysis a best-fit curve is fitted by a minimum sum of squares method. From this an IC50 value and Hill coefficient was obtained. High control (no inhibitor) and low control (saturating concentrations of standard inhibitor) were used to define the minimum and maximum values.

Emax	SMILES
99%	CC(c1ccc2c(c1)OCO2)N1CCCC(c2cc3ncccc3n2C)C1 (racemic) [Compound 44]
98.9%	CC(=O)Nc1ncc(CN2CCCC(c3cc4cnccc4[nH]3)C2)s1 (single isomer, unassigned) [Compound 13]
93.8%	CC(c1ccc2c(c1)OCCO2)N1CCCC(c2cc3ncccc3[nH]2)C1 (single isomer, unassigned) [Compound 34]
90.1%	CC(=O)N(C)c1ncc(CN2CCCC(c3cc4ncccc4[nH]3)C2)s1 (stereo not shown) [Compound 10]
77.3%	CC(=O)Nc1ncc(CN2CCOC(c3cc4ncccc4[nH]3)C2)s1 (stereo not shown) [Compound 27]
89.8%	Cn1c(C2CCCN(Cc3ccc4nccnc4c3)C2)cc2ncccc21 (stereo not shown) [Compound 41]
52.3%	Cn1c(C2CCCN(Cc3cc4c(cn3)OCCO4)C2)cc2ncccc21 (stereo not shown) [Compound 50]
56.7%	Cn1c(C2CCCN(Cc3ccc4ccccc4n3)C2)cc2ncccc21 (stereo not shown) [Compound 51]
72.2%	Cn1c(C2CCCN(Cc3ccc4nsnc4c3)C2)cc2ncccc21 (stereo not shown) [Compound 52]
97.2%	Cn1c(C2CCCN(Cc3ccc4scnc4c3)C2)cc2ncccc21 (stereo not shown) [Compound 53]
69.1%	Cn1c(CN2CCCC(c3cc4ncccc4n3C)C2)cc2ccccc21 (stereo not shown) [Compound 54]
81.5%	Cn1c(C2CCCN(Cc3cnc4c(c3)OCCO4)C2)cc2ncccc21 (stereo not shown) [Compound 55]
98%	Cn1c(C2CCCN(Cc3nc4ccccc4n3C)C2)cc2ncccc21 (stereo not shown) [Compound 56]
60.8%	CC(=O)Nc1ncc(CN2CCNC(c3cc4ncccc4[nH]3)C2)s1 (stereo not shown) [Compound 57]
23.9%	Cn1c(C2CCCN(Cc3ccc4cccnc4c3)C2)cc2ncccc21 (stereo not shown) [Compound 63]
100%	CC(=O)Nc1ncc(CN2CCCC(Cn3ccc4ncccc43)C2)s1 (stereo not shown) [Compound 64]

same assay, conditions: Enzymatic protocol B (2 nM OGA, 6 h); read-out: Enzymatic hOGA; pIC50 (converted)

IC50	SMILES
83.2 nM	CC(c1ccc2c(c1)OCO2)N1CCCC(c2cc3ncccc3n2C)C1 (racemic) [Compound 44]
22.9 nM	CC(=O)Nc1ncc(CN2CCCC(c3cc4cnccc4[nH]3)C2)s1 (single isomer, unassigned) [Compound 13]
708 nM	CC(c1ccc2c(c1)OCCO2)N1CCCC(c2cc3ncccc3[nH]2)C1 (single isomer, unassigned) [Compound 34]
1020 nM	CC(=O)N(C)c1ncc(CN2CCCC(c3cc4ncccc4[nH]3)C2)s1 (stereo not shown) [Compound 10]
3160 nM	CC(=O)Nc1ncc(CN2CCOC(c3cc4ncccc4[nH]3)C2)s1 (stereo not shown) [Compound 27]
1260 nM	Cn1c(C2CCCN(Cc3ccc4nccnc4c3)C2)cc2ncccc21 (stereo not shown) [Compound 41]
8710 nM	Cn1c(C2CCCN(Cc3cc4c(cn3)OCCO4)C2)cc2ncccc21 (stereo not shown) [Compound 50]
7760 nM	Cn1c(C2CCCN(Cc3ccc4ccccc4n3)C2)cc2ncccc21 (stereo not shown) [Compound 51]
3980 nM	Cn1c(C2CCCN(Cc3ccc4nsnc4c3)C2)cc2ncccc21 (stereo not shown) [Compound 52]
832 nM	Cn1c(C2CCCN(Cc3ccc4scnc4c3)C2)cc2ncccc21 (stereo not shown) [Compound 53]
4070 nM	Cn1c(CN2CCCC(c3cc4ncccc4n3C)C2)cc2ccccc21 (stereo not shown) [Compound 54]
2190 nM	Cn1c(C2CCCN(Cc3cnc4c(c3)OCCO4)C2)cc2ncccc21 (stereo not shown) [Compound 55]
832 nM	Cn1c(C2CCCN(Cc3nc4ccccc4n3C)C2)cc2ncccc21 (stereo not shown) [Compound 56]
6610 nM	CC(=O)Nc1ncc(CN2CCNC(c3cc4ncccc4[nH]3)C2)s1 (stereo not shown) [Compound 57]
> 10000 nM	Cn1c(C2CCCN(Cc3ccc4cccnc4c3)C2)cc2ncccc21 (stereo not shown) [Compound 63]
7.76 nM	CC(=O)Nc1ncc(CN2CCCC(Cn3ccc4ncccc43)C2)s1 (stereo not shown) [Compound 64]

same assay, conditions: comparative table; protocol not given; read-out: Emax (OGA inhibitory activity, comparison with 1,4-disubstituted piperidine comparator)

Emax	SMILES
103%	CC(=O)Nc1ncc(CN2CCC(c3cc4ncccc4[nH]3)CC2)s1 [comparator, reference compound]

same assay, conditions: comparative table; protocol not given; read-out: pIC50 (OGA inhibitory activity, comparison with 1,4-disubstituted piperidine comparator) (converted)

IC50	SMILES
224 nM	CC(=O)Nc1ncc(CN2CCC(c3cc4ncccc4[nH]3)CC2)s1 [comparator, reference compound]
